The target in the experiment is Vascular endothelial growth factor receptor 2 (Homo sapiens, UniProt P35968). The experiment is described as follows: Inhibition of human cytoplasmic VEGFR2 expressed in baculovirus after 15 mins by time resolved fluorescence assay.

One may read the IC50 as the concentration at which inhibition is half-maximal. A lower IC50 goes with greater potency in that assay.

Each structure is given as a SMILES string.

Chain of Vascular endothelial growth factor receptor 2 (P35968 whole entry): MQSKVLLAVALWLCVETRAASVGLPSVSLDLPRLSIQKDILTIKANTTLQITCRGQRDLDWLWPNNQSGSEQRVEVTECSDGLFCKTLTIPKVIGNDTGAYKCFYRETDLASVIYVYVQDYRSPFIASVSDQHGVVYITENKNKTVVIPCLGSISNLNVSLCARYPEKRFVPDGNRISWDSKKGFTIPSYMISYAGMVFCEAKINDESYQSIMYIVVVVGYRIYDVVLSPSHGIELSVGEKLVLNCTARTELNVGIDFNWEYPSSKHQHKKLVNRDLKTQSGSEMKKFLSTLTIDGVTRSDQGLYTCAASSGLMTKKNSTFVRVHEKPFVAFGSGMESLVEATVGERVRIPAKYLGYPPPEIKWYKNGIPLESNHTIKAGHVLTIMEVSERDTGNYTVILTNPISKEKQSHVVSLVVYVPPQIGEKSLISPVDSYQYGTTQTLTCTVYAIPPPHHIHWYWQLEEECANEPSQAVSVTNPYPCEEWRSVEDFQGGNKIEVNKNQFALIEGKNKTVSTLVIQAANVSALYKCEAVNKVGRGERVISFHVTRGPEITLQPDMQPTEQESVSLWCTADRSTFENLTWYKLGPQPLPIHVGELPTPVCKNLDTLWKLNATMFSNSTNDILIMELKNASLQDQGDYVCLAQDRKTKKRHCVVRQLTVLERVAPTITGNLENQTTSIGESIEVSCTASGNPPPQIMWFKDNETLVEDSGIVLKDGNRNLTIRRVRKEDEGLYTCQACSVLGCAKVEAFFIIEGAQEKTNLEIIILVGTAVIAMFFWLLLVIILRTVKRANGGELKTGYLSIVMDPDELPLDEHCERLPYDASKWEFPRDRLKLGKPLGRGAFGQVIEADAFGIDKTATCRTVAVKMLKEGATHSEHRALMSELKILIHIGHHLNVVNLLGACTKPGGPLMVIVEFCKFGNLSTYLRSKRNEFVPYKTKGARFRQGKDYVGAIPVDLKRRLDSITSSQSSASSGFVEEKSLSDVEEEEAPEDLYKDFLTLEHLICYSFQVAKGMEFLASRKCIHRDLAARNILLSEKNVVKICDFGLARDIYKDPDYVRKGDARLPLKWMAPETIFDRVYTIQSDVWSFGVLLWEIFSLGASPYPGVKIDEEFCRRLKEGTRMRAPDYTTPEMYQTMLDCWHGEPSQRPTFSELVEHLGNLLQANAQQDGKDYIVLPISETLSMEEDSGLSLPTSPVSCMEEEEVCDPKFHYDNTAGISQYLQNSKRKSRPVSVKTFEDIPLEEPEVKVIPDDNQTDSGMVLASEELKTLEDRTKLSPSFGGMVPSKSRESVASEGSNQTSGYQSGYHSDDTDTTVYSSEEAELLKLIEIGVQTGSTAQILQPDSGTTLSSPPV

`C=c1nns/c1=c1\[nH][nH]c(=O)c1=Cc1cn(C)c2ccc(C#N)cc12` [1-methyl-3-((3-(4-methyl-1,2,3-thiadiazol-5-yl)-5-oxo-1H-pyrazol-4(5H)-ylidene)methyl)-1H-indole-5-carbonitrile] had an IC50 above 300 nM.

Molecule `C=c1nns/c1=c1\[nH][nH]c(=O)c1=Cc1c[nH]c2ccc(Cl)cc12` [4-((5-chloro-1H-indol-3-yl)methylene)-3-(4-methyl-1,2,3-thiadiazol-5-yl)-1H-pyrazol-5(4H)-one] showed an IC50 above 300 nM.
